Experimental data published in US20230310428A1, “EGFR INHIBITOR AND PREPARATION METHOD AND USE THEREOF” (HONGYUN BIOTECH CO., LTD., priority 2020, published 2023).
Like-named read-outs stand apart in the source and are kept apart here.

Columns and labels:
Test in all cases: Growth inhibitory activity of compounds on BaF3 cell lines stably transfected with kinase (MTS, 48 h)
Assay type in all cases: cell-based
[1] = target: T1, various mutants of kinase EGFR (BaF3 cell lines stably transfected with kinase) (Homo sapiens, UniProt P00533)
T1 construct: other: BaF3 cells stably transfected with EGFR Δ19Del; MTS, 48 h; other: BaF3 cell line stably transfected with EGFR Δ19Del
Summary of the method: (§1)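 OD at 490 nm after 1-4 h MTS/PES incubation gave growth inhibition relative to 0.1% DMSO negative and cell-free medium blank. Compounds: 8-point 1/3 dilution from 10 µM, 48 h, 37 °C. IC50 from inhibition curves; duplicates.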

[2] = target: T2, various mutants of kinase EGFR (BaF3 cell lines stably transfected with kinase) (Homo sapiens, UniProt P00533, C797S/L858R/T790M)
T2 construct: expressed in transfected cells; host or cells: BaF3
Summary of the method: as §1

[3] = target: T3, various mutants of kinase EGFR (BaF3 cell lines stably transfected with kinase) (Homo sapiens, UniProt P00533, L858R)
T3 construct: expressed in transfected cells; host or cells: BaF3
Summary of the method: as §1

[4] = target: T4, various mutants of kinase EGFR (BaF3 cell lines stably transfected with kinase) (Homo sapiens, UniProt P00533, L858R/T790M)
T4 construct: expressed in transfected cells; host or cells: BaF3
Summary of the method: as §1

[5] = target: T5, various mutants of kinase EGFR (BaF3 cell lines stably transfected with kinase) (Homo sapiens, UniProt P00533, T790M/C797S, form not given)
T5 construct: other: BaF3 cells stably transfected with EGFR Δ19Del/T790M/C797S; MTS, 48; other: BaF3 cell line stably transfected with EGFR Δ19Del/T790M/C7
Summary of the method: as §1

[6] = target: T6, various mutants of kinase EGFR (BaF3 cell lines stably transfected with kinase) (Homo sapiens, UniProt P00533, T790M, form not given)
T6 construct: other: BaF3 cells stably transfected with EGFR Δ19Del/T790M; MTS, 48 h; other: BaF3 cell line stably transfected with EGFR Δ19Del/T790M; MTS, 48
Summary of the method: as §1

[7] = BaF3 cell line stably transfected with EGFR Δ19Del, read-out: Δ19Del growth inhibitory activity IC50
[8] = BaF3 cell line stably transfected with EGFR L858R/T790M/C797S, read-out: L858R/T790M/ C797S growth inhibitory activity IC50
[9] = BaF3 cell line stably transfected with EGFR L858R, read-out: L858R growth inhibitory activity IC50
[10] = BaF3 cell line stably transfected with EGFR L858R/T790M, read-out: L858R/ T790M growth inhibitory activity IC50
[11] = BaF3 cell line stably transfected with EGFR Δ19Del/T790M/C797S, read-out: Δ19Del/T790M/ C797S growth inhibitory activity IC50
[12] = BaF3 cell line stably transfected with EGFR Δ19Del/T790M, read-out: Δ19Del/ T790M growth inhibitory activity IC50
[13] = BaF3 cells stably transfected with EGFR Δ19Del, read-out: IC50, growth inhibition, Δ19Del
[14] = BaF3 cells stably transfected with EGFR L858R/T790M/C797S, read-out: IC50, growth inhibition, L858R/T790M/C797S
[15] = BaF3 cells stably transfected with EGFR L858R, read-out: IC50, growth inhibition, L858R
[16] = BaF3 cells stably transfected with EGFR L858R/T790M, read-out: IC50, growth inhibition, L858R/T790M
[17] = BaF3 cells stably transfected with EGFR Δ19Del/T790M/C797S, read-out: IC50, growth inhibition, Δ19Del/T790M/C797S
[18] = BaF3 cells stably transfected with EGFR Δ19Del/T790M, read-out: IC50, growth inhibition, Δ19Del/T790M

T3 sequence (P00533 25-1210 L858R): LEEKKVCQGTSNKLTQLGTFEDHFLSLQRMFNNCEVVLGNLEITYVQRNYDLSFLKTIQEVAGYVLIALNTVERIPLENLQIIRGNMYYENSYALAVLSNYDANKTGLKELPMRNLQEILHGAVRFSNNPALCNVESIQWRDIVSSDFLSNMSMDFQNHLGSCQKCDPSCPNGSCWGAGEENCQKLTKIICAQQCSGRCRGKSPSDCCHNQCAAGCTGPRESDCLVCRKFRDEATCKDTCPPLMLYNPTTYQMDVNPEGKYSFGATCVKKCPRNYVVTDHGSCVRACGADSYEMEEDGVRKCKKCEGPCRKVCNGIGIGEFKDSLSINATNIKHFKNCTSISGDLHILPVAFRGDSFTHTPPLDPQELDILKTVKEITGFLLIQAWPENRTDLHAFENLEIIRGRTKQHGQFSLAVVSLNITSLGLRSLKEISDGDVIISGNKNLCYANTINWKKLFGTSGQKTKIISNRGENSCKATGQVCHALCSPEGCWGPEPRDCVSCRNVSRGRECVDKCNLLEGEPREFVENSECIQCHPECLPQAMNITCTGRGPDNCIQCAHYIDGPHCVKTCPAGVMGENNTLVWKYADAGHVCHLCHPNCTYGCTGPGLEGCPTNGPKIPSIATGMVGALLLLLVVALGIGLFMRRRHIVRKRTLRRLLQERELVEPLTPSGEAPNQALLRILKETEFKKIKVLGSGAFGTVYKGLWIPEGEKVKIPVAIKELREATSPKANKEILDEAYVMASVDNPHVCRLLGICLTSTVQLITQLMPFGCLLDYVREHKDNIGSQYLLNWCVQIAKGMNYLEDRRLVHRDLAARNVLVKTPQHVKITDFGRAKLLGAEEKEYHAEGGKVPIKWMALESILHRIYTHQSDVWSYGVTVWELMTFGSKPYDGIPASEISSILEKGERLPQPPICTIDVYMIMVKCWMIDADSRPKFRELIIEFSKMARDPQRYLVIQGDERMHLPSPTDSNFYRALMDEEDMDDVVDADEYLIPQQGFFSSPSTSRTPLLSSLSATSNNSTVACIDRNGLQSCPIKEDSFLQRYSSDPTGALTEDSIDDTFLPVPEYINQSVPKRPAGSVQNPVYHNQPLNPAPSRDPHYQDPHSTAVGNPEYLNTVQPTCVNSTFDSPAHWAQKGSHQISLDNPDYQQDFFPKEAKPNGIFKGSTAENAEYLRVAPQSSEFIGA
T1 sequence (P00533 with tags, fused parts or gaps DEL746-750): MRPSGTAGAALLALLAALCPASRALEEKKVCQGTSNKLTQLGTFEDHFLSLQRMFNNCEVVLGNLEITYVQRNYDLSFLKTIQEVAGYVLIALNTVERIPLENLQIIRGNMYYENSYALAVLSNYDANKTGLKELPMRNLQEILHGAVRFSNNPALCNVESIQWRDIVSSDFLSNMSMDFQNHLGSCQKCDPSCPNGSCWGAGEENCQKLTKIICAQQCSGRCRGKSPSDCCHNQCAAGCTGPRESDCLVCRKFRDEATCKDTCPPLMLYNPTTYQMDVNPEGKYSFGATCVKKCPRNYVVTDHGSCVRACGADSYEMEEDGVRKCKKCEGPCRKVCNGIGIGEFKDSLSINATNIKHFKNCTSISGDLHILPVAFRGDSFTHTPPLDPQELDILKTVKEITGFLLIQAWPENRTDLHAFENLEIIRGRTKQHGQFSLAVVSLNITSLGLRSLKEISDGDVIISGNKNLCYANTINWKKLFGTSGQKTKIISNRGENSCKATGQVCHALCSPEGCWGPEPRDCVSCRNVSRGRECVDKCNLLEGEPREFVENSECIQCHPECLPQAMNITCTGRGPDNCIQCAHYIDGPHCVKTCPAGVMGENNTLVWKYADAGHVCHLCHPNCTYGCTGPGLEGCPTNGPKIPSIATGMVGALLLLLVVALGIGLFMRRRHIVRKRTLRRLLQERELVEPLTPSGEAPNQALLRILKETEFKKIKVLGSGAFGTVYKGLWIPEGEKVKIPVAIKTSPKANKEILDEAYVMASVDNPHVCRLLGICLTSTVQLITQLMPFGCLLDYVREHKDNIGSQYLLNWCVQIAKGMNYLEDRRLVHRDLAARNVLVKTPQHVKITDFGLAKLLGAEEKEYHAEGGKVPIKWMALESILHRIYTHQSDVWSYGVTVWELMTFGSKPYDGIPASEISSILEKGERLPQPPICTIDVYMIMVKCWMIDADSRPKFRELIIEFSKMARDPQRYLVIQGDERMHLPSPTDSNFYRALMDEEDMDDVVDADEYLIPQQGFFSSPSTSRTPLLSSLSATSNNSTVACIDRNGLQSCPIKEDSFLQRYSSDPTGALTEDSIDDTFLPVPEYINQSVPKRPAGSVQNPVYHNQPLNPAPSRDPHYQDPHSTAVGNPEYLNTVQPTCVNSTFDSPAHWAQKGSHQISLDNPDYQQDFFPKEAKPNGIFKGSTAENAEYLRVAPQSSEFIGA
T6 sequence (P00533 with tags, fused parts or gaps DEL746-750/T790M, form open): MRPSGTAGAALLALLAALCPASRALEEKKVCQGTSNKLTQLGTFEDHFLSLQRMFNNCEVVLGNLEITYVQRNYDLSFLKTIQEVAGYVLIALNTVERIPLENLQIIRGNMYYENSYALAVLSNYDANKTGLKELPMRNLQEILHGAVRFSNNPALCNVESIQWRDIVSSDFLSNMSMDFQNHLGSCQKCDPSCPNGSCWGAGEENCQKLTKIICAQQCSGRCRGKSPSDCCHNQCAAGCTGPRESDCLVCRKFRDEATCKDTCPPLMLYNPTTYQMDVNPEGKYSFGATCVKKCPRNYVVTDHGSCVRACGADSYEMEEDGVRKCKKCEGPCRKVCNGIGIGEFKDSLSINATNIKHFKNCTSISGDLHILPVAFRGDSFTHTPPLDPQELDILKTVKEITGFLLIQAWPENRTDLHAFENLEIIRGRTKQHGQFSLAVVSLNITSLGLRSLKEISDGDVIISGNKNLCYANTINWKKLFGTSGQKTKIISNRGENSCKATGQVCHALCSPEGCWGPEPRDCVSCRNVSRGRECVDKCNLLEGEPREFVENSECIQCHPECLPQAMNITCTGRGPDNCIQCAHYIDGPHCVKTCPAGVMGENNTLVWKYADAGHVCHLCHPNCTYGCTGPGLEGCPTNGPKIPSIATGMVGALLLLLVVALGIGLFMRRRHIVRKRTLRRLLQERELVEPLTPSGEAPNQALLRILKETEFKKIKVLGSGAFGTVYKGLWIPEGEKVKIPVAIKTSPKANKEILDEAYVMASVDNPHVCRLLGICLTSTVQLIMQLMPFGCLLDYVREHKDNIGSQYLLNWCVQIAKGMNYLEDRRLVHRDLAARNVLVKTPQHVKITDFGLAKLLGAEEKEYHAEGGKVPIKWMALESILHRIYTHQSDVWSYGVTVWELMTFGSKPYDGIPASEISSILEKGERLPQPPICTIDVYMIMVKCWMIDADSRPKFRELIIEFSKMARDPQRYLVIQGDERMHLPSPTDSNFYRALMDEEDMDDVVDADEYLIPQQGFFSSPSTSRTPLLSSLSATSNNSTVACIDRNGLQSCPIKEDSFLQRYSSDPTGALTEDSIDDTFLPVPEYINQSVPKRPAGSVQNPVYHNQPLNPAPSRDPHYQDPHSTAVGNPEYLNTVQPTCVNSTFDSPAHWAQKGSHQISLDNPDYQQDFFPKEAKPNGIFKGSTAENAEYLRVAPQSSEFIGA
T2 sequence (P00533 25-1210 T790M/C797S/L858R): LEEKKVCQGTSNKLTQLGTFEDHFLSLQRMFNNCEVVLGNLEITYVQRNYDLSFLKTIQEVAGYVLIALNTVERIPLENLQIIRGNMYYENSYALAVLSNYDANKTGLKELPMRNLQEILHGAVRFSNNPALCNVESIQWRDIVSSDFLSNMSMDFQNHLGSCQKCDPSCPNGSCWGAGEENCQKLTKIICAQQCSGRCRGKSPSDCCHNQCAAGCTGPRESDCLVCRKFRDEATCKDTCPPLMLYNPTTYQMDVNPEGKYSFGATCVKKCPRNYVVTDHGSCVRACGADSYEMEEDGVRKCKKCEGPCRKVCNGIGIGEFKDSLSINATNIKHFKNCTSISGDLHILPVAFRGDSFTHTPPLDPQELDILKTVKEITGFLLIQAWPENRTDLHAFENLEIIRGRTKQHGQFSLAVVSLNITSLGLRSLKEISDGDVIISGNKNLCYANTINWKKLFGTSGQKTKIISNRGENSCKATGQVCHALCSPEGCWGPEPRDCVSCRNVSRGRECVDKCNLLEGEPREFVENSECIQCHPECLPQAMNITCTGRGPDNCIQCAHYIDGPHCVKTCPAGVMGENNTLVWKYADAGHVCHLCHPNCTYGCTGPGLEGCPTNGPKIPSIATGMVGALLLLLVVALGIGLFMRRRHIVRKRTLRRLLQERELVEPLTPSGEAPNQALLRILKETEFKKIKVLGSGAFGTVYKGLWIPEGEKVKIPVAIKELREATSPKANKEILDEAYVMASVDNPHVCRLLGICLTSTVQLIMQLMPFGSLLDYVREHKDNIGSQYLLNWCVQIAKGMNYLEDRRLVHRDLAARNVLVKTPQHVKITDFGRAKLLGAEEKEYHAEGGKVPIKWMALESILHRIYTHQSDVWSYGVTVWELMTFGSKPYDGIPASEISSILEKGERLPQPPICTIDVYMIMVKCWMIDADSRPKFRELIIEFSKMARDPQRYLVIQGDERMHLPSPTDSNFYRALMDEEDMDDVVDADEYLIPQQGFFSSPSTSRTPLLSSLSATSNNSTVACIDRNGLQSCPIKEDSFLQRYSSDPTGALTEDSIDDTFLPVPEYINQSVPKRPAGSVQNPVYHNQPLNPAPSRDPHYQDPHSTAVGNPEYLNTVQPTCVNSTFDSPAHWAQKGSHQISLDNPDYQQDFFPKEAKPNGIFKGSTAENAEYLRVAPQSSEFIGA

IC50 [1, 7] [nM]	IC50 [2, 8] [nM]	IC50 [3, 9] [nM]	IC50 [4, 10] [nM]	IC50 [5, 11] [nM]	IC50 [6, 12] [nM]	IC50 [1, 13] [nM]	IC50 [2, 14] [nM]	IC50 [3, 15] [nM]	IC50 [4, 16] [nM]	IC50 [5, 17] [nM]	IC50 [6, 18] [nM]	Compound
≤ 50	≤ 50	≤ 50	≤ 50	≤ 50	≤ 50	–	–	–	–	–	–	CCc1cc(Nc2ncc(Br)c(Nc3ccc4nccnc4c3NS(C)(=O)=O)n2)c(OC)cc1N1CCC(N(C)C)CC1 [Compound I-410]
≤ 50	≤ 50	≤ 50	≤ 50	≤ 50	≤ 50	–	–	–	–	–	–	CCc1cc(Nc2ncc(CC)c(Nc3ccc4nccnc4c3N(C)S(C)(=O)=O)n2)c(OC)cc1N1CCC(N2CCN(C)CC2)CC1 [Compound I-318]
–	–	–	–	–	–	≤ 50	≤ 50	≤ 50	≤ 50	≤ 50	≤ 50	CCc1cc(Nc2ncc(F)c(Nc3ccc4nccnc4c3N(C)S(C)(=O)=O)n2)c(OC)cc1N1CCC(N2CCN(C)CC2)CC1 [Compound I-26]
50 to 500	≤ 50	50 to 500	≤ 50	≤ 50	≤ 50	–	–	–	–	–	–	COc1cc(N2CCC(N3CCN(C)CC3)CC2)c(C)cc1Nc1ncc(Br)c(Nc2ccc3nccnc3c2NS(=O)(=O)C(C)C)n1 [Compound I-414]
–	–	–	–	–	–	≤ 50	≤ 50	≤ 50	≤ 50	≤ 50	≤ 50	CCc1cc(Nc2ncc(Cl)c(Nc3ccc4nccnc4c3N(C)S(=O)(=O)C3CC3)n2)c(OC)cc1N1CCC(N(C)C)CC1 [Compound I-122]
–	–	–	–	–	–	50 to 500	≤ 50	50 to 500	≤ 50	≤ 50	≤ 50	COc1cc(N2CCC(N3CCN(C)CC3)CC2)c(C2CC2)cc1Nc1ncc(Br)c(Nc2ccc3nccnc3c2N(C)S(C)(=O)=O)n1 [Compound I-285]
50 to 500	50 to 500	50 to 500	50 to 500	50 to 500	50 to 500	–	–	–	–	–	–	COc1cc(N2CCC(N3CCN(C)CC3)CC2)ccc1Nc1ncc(Br)c(Nc2ccc3nccnc3c2NS(=O)(=O)C(C)C)n1 [Compound I-413]
≤ 50	≤ 50	≤ 50	≤ 50	≤ 50	≤ 50	–	–	–	–	–	–	CCc1cc(Nc2ncc(Br)c(Nc3ccc4nccnc4c3NS(C)(=O)=O)n2)ccc1N1CCC(N2CCN(C)CC2)CC1 [Compound I-409]
–	–	–	–	–	–	50 to 500	≤ 50	≤ 50	≤ 50	≤ 50	≤ 50	CCc1cc(Nc2ncc(Cl)c(Nc3ccc4nccnc4c3N(CC)S(C)(=O)=O)n2)c(OC)cc1N1CCC(N(C)C)C1 (stereo not drawn) [Compound I-113]
–	–	–	–	–	–	≤ 50	≤ 50	≤ 50	≤ 50	≤ 50	≤ 50	CCN(c1c(Nc2nc(Nc3cc(C)c(N4CCC(N(C)C)CC4)cc3OC)ncc2Cl)ccc2nccnc12)S(C)(=O)=O [Compound I-230]
500 to 2500	50 to 500	500 to 2500	500 to 2500	500 to 2500	500 to 2500	–	–	–	–	–	–	CCc1cc(Nc2ncc(Br)c(Nc3ccc4nccnc4c3N(C)S(C)(=O)=O)n2)c(OC)cc1F [Compound I-389]
≤ 50	≤ 50	≤ 50	≤ 50	≤ 50	≤ 50	–	–	–	–	–	–	CCc1cc(Nc2ncc(OC)c(Nc3ccc4nccnc4c3N(C)S(C)(=O)=O)n2)c(OC)cc1N1CCC(N(C)C)C1 (stereo not drawn) [Compound I-335]

Second part, the molecule before the results:

Compound	IC50 [1, 7] [nM]	IC50 [2, 8] [nM]	IC50 [3, 9] [nM]	IC50 [4, 10] [nM]	IC50 [5, 11] [nM]	IC50 [6, 12] [nM]	IC50 [1, 13] [nM]	IC50 [2, 14] [nM]	IC50 [3, 15] [nM]	IC50 [4, 16] [nM]	IC50 [5, 17] [nM]	IC50 [6, 18] [nM]
COc1cc(N2CCC(N3CCN(C)CC3)CC2)c(CC2CC2)cc1Nc1ncc(Cl)c(Nc2ccc3nccnc3c2N(C2CC2)S(C)(=O)=O)n1 [Compound I-242]	–	–	–	–	–	–	50 to 500	≤ 50	50 to 500	50 to 500	≤ 50	50 to 500
COc1cc(N2CCC(N3CCN(C)CC3)CC2)c(C)cc1Nc1ncc(Cl)c(Nc2ccc3nccnc3c2N(C)S(C)(=O)=O)n1 [Compound I-19]	–	–	–	–	–	–	≤ 50	≤ 50	≤ 50	≤ 50	≤ 50	≤ 50
CCOc1cc(N2CCN(C)CC2)ccc1Nc1ncc(Br)c(Nc2ccc3nccnc3c2N(C)S(C)(=O)=O)n1 [Compound I-39]	–	–	–	–	–	–	500 to 2500	≤ 50	500 to 2500	50 to 500	≤ 50	50 to 500
COc1cc(N2CCN(C)CC2)c(C)cc1Nc1nc(Nc2ccc3nccnc3c2N(C)S(C)(=O)=O)c2cc[nH]c2n1 [II-2-12]	50 to 500	≤ 50	50 to 500	≤ 50	≤ 50	≤ 50	–	–	–	–	–	–
CC(C)n1cc(Nc2ncc(Br)c(Nc3ccc4nccnc4c3N(C)S(C)(=O)=O)n2)cn1 [Compound I-388]	50 to 500	≤ 50	50 to 500	≤ 50	≤ 50	50 to 500	–	–	–	–	–	–
CN(c1c(Nc2nc(Nc3cccc(N4CCC(N5CCCC5)CC4)c3)ncc2Br)ccc2nccnc12)S(C)(=O)=O [Compound I-381]	50 to 500	≤ 50	50 to 500	≤ 50	50 to 500	≤ 50	–	–	–	–	–	–
COc1ccc(N2CCC(O)CC2)cc1Nc1ncc(Cl)c(Nc2ccc3nccnc3c2N(C)S(=O)(=O)C2CC2)n1 [Compound I-374]	50 to 500	≤ 50	50 to 500	50 to 500	≤ 50	50 to 500	–	–	–	–	–	–
CCc1cc(Nc2nc(Nc3ccc4nccnc4c3N(C)S(C)(=O)=O)c3occc3n2)c(OC)cc1N1CCC(N2CCN(C)CC2)CC1 [II-1-26]	50 to 500	≤ 50	50 to 500	≤ 50	≤ 50	≤ 50	–	–	–	–	–	–
CCc1cc(Nc2ncc(Br)c(Nc3ccc4nccnc4c3N(C)S(=O)(=O)C3CC3)n2)c(OC)nc1N1CCC(N2CCN(C)CC2)CC1 [Compound I-218]	–	–	–	–	–	–	50 to 500	≤ 50	50 to 500	≤ 50	≤ 50	≤ 50
COc1cc(N2CCC(N3CCN(C)CC3)CC2)c(C)cc1Nc1nc(Nc2ccc3nccnc3c2N(C)S(C)(=O)=O)c2occc2n1 [II-1-25]	50 to 500	50 to 500	50 to 500	50 to 500	≤ 50	50 to 500	–	–	–	–	–	–
COc1ccc(N2CCC(O)CC2)cc1Nc1ncc(OC)c(Nc2ccc3nccnc3c2N(C)S(C)(=O)=O)n1 [Compound I-366]	50 to 500	≤ 50	50 to 500	≤ 50	≤ 50	50 to 500	–	–	–	–	–	–
CCc1cc(Nc2ncc(F)c(Nc3ccc4nccnc4c3N(C)S(C)(=O)=O)n2)c(OC)nc1N1CCC(N2CCN(C)CC2)CC1 [Compound I-177]	–	–	–	–	–	–	≤ 50	≤ 50	≤ 50	≤ 50	≤ 50	≤ 50
CCc1cc(Nc2ncc(Cl)c(Nc3ccc4nccnc4c3N(C)S(=O)(=O)C3CC3)n2)c(OC(F)(F)F)cc1N1CCC(N2CCN(C)CC2)CC1 [Compound I-121]	–	–	–	–	–	–	50 to 500	50 to 500	50 to 500	50 to 500	50 to 500	50 to 500
